Source: US12391685B2, “Inhibitors of RNA-guided nuclease target binding and uses thereof” (THE BROAD INSTITUTE, INC., priority 2018, dated 2025)

The molecules below were run against SpCas9 (Streptococcus pyogenes serotype M1, UniProt Q99ZW2) (assay: eGFP-disruption assay in U2OS.eGFP.PEST cells). Conditions: screen of structural analogs of BRD7087; 15 μM compound, 24 h, U2OS.eGFP.PEST cells.
Format: cell-based, S. pyogenes
Set-up: host or cells: U2OS.eGFP.PEST
Protocol: SpCas9 nuclease activity in eGFP-disruption assay. Approximately 200,000 U2OS.eGFP-PEST cells were nucleofected following two different methods either by nucleofecting plasmids or RNP using the SE Cell Line 4D-Nucleofector™ X Kit (Lonza) according to the manufacturer's protocol. In the plasmid nucleofection method, cells were nucleofected either with 440 ng of SpCas9 (Addgene Plasmid #43861) or 400 ng of SpCas9 along with 40 ng of sgRNA (pFYF1320 eGFP Site #1, Addgene Plasmid #47511). Cells nucleofected only with SpCas9-expressing plasmid were used as the transfection control. In the RNP nucleofection method, either […] SpCas9 or 20 pmol preformed SpCas9:gRNA (eGFP Site #1) complex were nucleofected. Approximately 20,000 transfected cells/well were plated in 4 replicates in a 96-well plate (Corning® 3904). Cells were incubated with the indicated amount of compound or DMSO for 24 h post transfection. A DMSO solution of compound (20 mM) was resuspended in the 10% FBS containing growth media and thoroughly mixed before adding to the cells. Cells were then fixed using 4% paraformaldehyde and imaged with the HCS NuclearMask™ Blue Stain (Life Technologies) as the nuclear counter-staining agent. Imaging was performed with an ImageXpress Micro automated microscope (Molecular Devices) at 10× magnification under three excitation channels (blue, green and red) acquiring nine sites per well. Images were analyzed using MetaXpress software and data were plotted using GraphPad Prism 6.
The Z′-value was calculated using the equation (1), where σ1 and σ2 are the standard deviations of DMSO control and SpCas9:gRNA control respectively. μ1 and μ2 are the mean % GFP^− cell population for DMSO control and SpCas9:gRNA control, respectively.

SpCas9, sequence (Q99ZW2 whole entry): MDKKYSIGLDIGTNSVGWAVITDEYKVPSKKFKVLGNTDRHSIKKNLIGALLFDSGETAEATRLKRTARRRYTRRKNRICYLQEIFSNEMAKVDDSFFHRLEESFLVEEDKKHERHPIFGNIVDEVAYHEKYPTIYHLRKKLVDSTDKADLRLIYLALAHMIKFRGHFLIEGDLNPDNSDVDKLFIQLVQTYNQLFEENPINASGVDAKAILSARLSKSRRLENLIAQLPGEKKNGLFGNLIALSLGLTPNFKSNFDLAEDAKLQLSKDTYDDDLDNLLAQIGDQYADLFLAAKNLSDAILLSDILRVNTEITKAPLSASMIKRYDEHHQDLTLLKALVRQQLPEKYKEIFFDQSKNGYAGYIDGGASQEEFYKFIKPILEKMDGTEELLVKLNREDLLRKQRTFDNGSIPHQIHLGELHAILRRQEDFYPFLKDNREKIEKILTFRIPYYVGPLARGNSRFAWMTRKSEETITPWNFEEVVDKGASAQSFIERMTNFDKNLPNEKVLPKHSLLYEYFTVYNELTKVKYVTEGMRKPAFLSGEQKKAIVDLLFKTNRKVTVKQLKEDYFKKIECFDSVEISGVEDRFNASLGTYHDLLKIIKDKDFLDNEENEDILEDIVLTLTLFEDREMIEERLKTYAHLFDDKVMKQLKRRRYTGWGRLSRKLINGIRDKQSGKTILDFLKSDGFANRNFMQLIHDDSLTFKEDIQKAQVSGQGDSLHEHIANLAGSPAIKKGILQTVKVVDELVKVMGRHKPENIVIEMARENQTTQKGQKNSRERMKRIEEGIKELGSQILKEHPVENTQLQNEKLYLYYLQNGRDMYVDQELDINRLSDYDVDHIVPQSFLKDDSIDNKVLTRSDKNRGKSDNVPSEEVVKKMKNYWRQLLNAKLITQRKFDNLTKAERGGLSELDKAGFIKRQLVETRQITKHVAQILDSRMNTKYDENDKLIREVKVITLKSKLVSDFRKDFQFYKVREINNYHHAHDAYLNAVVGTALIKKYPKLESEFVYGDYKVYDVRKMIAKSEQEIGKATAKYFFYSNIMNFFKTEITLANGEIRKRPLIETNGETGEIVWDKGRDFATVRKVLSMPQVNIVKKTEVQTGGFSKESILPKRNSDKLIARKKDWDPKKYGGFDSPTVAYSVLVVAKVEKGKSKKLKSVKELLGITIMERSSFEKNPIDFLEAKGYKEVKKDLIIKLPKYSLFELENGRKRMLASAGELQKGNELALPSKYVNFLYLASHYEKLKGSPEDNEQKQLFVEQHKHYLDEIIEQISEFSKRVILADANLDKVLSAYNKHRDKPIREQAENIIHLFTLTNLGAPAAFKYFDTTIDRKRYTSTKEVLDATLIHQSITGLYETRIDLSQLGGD

Row | Compound | Average Inhibition activity | Inhibition activity Rep 1 | Inhibition activity Rep 2
1 | CN1c2ccc(C#Cc3ccccc3)cc2[C@@H]2[C@@H](CCN2S(=O)(=O)c2cn(C)cn2)[C@H]1CO [BRD-A34097118] | 60.1 | 50.1 | 70.1
2 | O=C(CC1CC1)N1CC[C@@H]2[C@H]1c1cc(-c3ccc(F)cc3)ccc1N[C@@H]2CO [BRD-K03427362] | 49.4 | 48.3 | 50.6
3 | COc1cccc(S(=O)(=O)N2CC[C@@H]3[C@H]2c2cc(C#Cc4cccnc4)ccc2N(C)[C@H]3CO)c1 [BRD-K04388421] | 51.2 | 49.1 | 53.3
4 | O=C(Cc1ccccc1)N1CC[C@@H]2[C@H](CO)Nc3ccc(-c4ccc(F)cc4)cc3[C@@H]21 [BRD-K05104277] | 65.0 | 71.6 | 58.4
5 | COCC(=O)N1CC[C@@H]2[C@H](CO)Nc3ccc(C#Cc4cccc(F)c4)cc3[C@@H]21 [BRD-K09759494] | 50.9 | 51.1 | 50.7
6 | Cc1ccccc1S(=O)(=O)N1CC[C@@H]2[C@H](CO)N(C)c3ccc(C#Cc4ccc(F)cc4)cc3[C@@H]21 [BRD-K11385710] | 51.1 | 55.7 | 46.5
7 | COc1cccc(-c2ccc3c(c2)[C@@H]2[C@@H](CCN2C(=O)c2cnccn2)[C@@H](CO)N3)c1 [BRD-K11943259] | 58.8 | 53.0 | 64.6
8 | CN1c2ccc(C#Cc3cccnc3)cc2[C@H]2[C@H](CCN2C(=O)C2CCCCC2)[C@H]1CO [BRD-K11970601] | 54.5 | 59.0 | 50.0
9 | O=S(=O)(c1cccc(F)c1)N1CC[C@@H]2[C@H](CO)Nc3ccc(C#Cc4ccccc4F)cc3[C@@H]21 [BRD-K12807496] | 60.8 | 50.9 | 70.7
10 | O=S(=O)(c1cccc(F)c1)N1CC[C@@H]2[C@H]1c1cc(C#Cc3ccccc3F)ccc1N[C@@H]2CO [BRD-K14474387] | 61.3 | 56.1 | 66.4
11 | COc1ccc(S(=O)(=O)N2CC[C@@H]3[C@@H](CO)N(C)c4ccc(-c5ccc(F)cc5)cc4[C@@H]32)cc1 [BRD-K16827616] | 60.5 | 76.4 | 44.6
12 | COc1ccc(-c2ccc3c(c2)[C@H]2[C@H](CCN2C(=O)Cc2ccncc2)[C@H](CO)N3)cc1 [BRD-K17925790] | 51.7 | 52.6 | 50.8
13 | COc1ccccc1CN1CC[C@@H]2[C@H]1c1cc(C#Cc3ccccc3)ccc1N[C@@H]2CO [BRD-K18260949] | 49.5 | 49.8 | 49.1
14 | CN1c2ccc(C#Cc3cccnc3)cc2[C@@H]2[C@@H](CCN2C(=O)c2cccc(F)c2)[C@@H]1CO [BRD-K18296007] | 64.7 | 69.6 | 59.7
15 | O=C(C1CCCCC1)N1CC[C@@H]2[C@H]1c1cc(Br)ccc1N[C@@H]2CO [BRD-K20055065] | 70.7 | 67.5 | 73.9
16 | COc1ccccc1-c1ccc2c(c1)[C@H]1[C@H](CCN1C(=O)CN1CCOCC1)[C@H](CO)N2C [BRD-K22244182] | 50.3 | 57.2 | 43.4
17 | COc1ccccc1C#Cc1ccc2c(c1)[C@H]1[C@H](CCN1C(=O)CN1CCOCC1)[C@H](CO)N2 [BRD-K26627503] | 56.9 | 47.5 | 66.3
18 | COc1cccc(S(=O)(=O)N2CC[C@@H]3[C@H](CO)N(C)c4ccc(C#Cc5cccnc5)cc4[C@@H]32)c1 [BRD-K29966477] | 57.5 | 50.1 | 64.8
19 | O=C(C1CC1)N1CC[C@@H]2[C@H](CO)Nc3ccc(Br)cc3[C@@H]21 [BRD-K31090697] | 48.0 | 46.0 | 49.9
